Where “and” joins values, the source holds several entries; their conditions need not be identical. Equal entries are not always repeated.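 Briefly, cells in 96-well plates were exposed to five compound concentrations for 48 h, and endpoints were estimated by linear interpolation. GI50: concentration for 50% inhibition of growth. TGI: total growth inhibition.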
What was measured:
Test in all cases: NCI anticancer screen, dose series, 48 h
NCI-H226 lung = test system: NCI-H226 lung
OVCAR-8 ovarian = test system: OVCAR-8 ovarian
MCF7 breast = test system: MCF7 breast
A549 NSCLC = test system: A549 NSCLC
BT-549 breast = test system: BT-549 breast
U251 CNS = test system: U251 CNS
UACC-257 melanoma = test system: UACC-257 melanoma
NCI-H522 lung = test system: NCI-H522 lung

Row | SMILES | GI50 (NCI-H226 lung) | TGI (NCI-H226 lung) | GI50 (OVCAR-8 ovarian) | TGI (OVCAR-8 ovarian) | GI50 (MCF7 breast) | TGI (MCF7 breast) | GI50 (A549 NSCLC) | TGI (A549 NSCLC) | GI50 (BT-549 breast) | TGI (BT-549 breast) | GI50 (U251 CNS) | TGI (U251 CNS) | GI50 (UACC-257 melanoma) | TGI (UACC-257 melanoma) | GI50 (NCI-H522 lung) | TGI (NCI-H522 lung)
1 | CNCCCn1c2c(c3ccc(F)cc3c1=O)C(=O)c1cc(OC)cnc1-2 | 0.163 µM | 0.356 µM | 0.193 µM | 1.12 µM | 0.0344 µM | 3.43 µM | 0.105 µM | 0.288 µM | 0.577 µM | 4.84 µM | 0.11 µM | 0.46 µM | 0.485 µM | 1.9 µM | 0.0569 µM | 1.08 µM
2 | Clc1ccc(N2CCC(N3CCCC3)CC2)cc1-c1nc2ccccc2[nH]1 | 18.4 µM | 43.8 µM | 22.5 µM | 60.6 µM | 15.8 µM | 30.7 µM | 27.2 µM | > 84.4 µM | 14.1 µM | 31.2 µM | 16.7 µM | 35.1 µM | 17 µM | 32.9 µM | 19.1 µM | 38.7 µM
3 | CCCC#CCOC(=O)c1cc([N+](=O)[O-])cc([N+](=O)[O-])c1 |  |  |  | > 100 µM |  | > 100 µM |  | > 100 µM |  | > 100 µM |  | > 100 µM |  | > 100 µM |  | > 100 µM
4 | CC(=O)NC1=C(Sc2ccc(Cl)cc2)C(=O)c2ccccc2C1=O |  | 24.2 µM |  | 6.77 µM |  | 5.01 µM |  | > 100 µM |  | 18 µM |  | 14.9 µM |  | 17.3 µM |  | 1.18 µM
5 | CC(C)(C)OC(=O)NCCCCCCCCCCn1c2c(c3ccccc3c1=O)C(=O)c1ccccc1-2 | > 100 µM | > 100 µM | 89.9 µM | > 100 µM | > 100 µM | > 100 µM | > 100 µM | > 100 µM | 57.5 µM | > 100 µM | 29 µM | > 100 µM | > 100 µM | > 100 µM | 86.1 µM | > 100 µM
6 | CC12CCC(O)CC1=CCC1C2CCC2(C)C(c3cccnc3)=CCC12 (stereo unspecified) | > 100 µM | > 100 µM | > 100 µM | > 100 µM | > 100 µM | > 100 µM | > 100 µM | > 100 µM | > 100 µM | > 100 µM | 70.1 µM | > 100 µM |  |  | > 100 µM | > 100 µM
7 | CN(C)CCOc1ccc(-c2cc(-c3ccc4c(c3)CC/C4=N\O)c(-c3ccncc3)o2)cc1 | 4.78 µM | 9.7 µM | 3.97 µM | 9 µM | 5.02 µM | 10.1 µM | 3.57 µM | 7.06 µM | 4.35 µM | 8.03 µM | 2.41 µM | 5.55 µM | 0.0945 µM | 1.87 µM | 3.73 µM | 8.02 µM
8 | COc1cc2c(cc1O)C(c1cc(O)c(O)c(OC)c1)C(O)(C(=O)O)C(CO)C2O (stereo unspecified) |  | > 100 µM |  | > 100 µM |  | 42.5 µM |  | > 100 µM |  | > 100 µM |  | > 100 µM |  | > 100 µM |  | > 100 µM
9 | CCOC(=O)c1nc2cc(C(F)(F)F)ccc2[n+]([O-])c1C | > 100 µM | > 100 µM | > 100 µM | > 100 µM | > 100 µM | > 100 µM | > 100 µM | > 100 µM | > 100 µM | > 100 µM | > 100 µM | > 100 µM | > 100 µM | > 100 µM | > 100 µM | > 100 µM
10 | CCCCN1CCN(c2ccc3nc(-c4ccc5nc(-c6ccc(OCC)c(OCC)c6)[nH]c5c4)[nH]c3c2)CC1 | 1.29 µM | 3.95 µM |  |  |  |  |  |  |  |  | 1.28 µM | 2.69 µM | 1.21 µM | 10.5 µM | 1.2 µM | 3.97 µM
11 | O=Nc1c(O)c2ccccc2c2ccccc12 | 2.03 µM | 3.83 µM | 0.653 µM | 3.88 µM | 1.46 µM | 4.11 µM | 1.63 µM | 3.13 µM | 1.25 µM | 2.55 µM | 0.496 µM | 2.09 µM | 0.476 µM | 1.75 µM | 1.26 µM | 3.58 µM
12 | COc1ccc(/C(=N/O)c2cc(OC)c(OC)c(OC)c2)c(OC)c1N | > 100 µM | > 100 µM | 9.87 µM | > 100 µM | 3.26 µM | > 100 µM | 8.21 µM | > 100 µM | 8.79 µM | > 100 µM | 5.65 µM | > 100 µM |  |  | 4.02 µM | > 100 µM
13 | Cc1cc(O)cc(C)c1/C=C/c1cncc(C(=O)OC(C)(C)C)c1 | > 25 µM | > 25 µM | 18 µM | > 25 µM | 11.8 µM | > 25 µM | 9.23 µM | > 25 µM | > 20.8 µM | > 25 µM | 14.9 µM | > 25 µM | 19.6 µM | > 25 µM | 7.95 µM | 24.8 µM
14 | O=C(c1ccccc1O)c1[nH]c(Cl)c(Cl)c1-n1c(C(=O)c2ccccc2O)cc(Cl)c1Cl | 1.63 µM and 0.706 µM | 14.9 µM and 5.97 µM | 0.643 µM and 0.558 µM | 10.9 µM and 15.8 µM | 0.407 µM and 0.258 µM | 10.6 µM and 10.3 µM | 2.69 µM and 1.8 µM | 10.9 µM and 14.6 µM | 1.22 µM and 0.675 µM | 6.74 µM and 4.96 µM | 1.29 µM and 1.42 µM | 12.3 µM and 13.6 µM | 1.58 µM and 1.99 µM | 5.88 µM and 9.95 µM | 0.317 µM and 0.363 µM | 1.4 µM and 7.68 µM
15 | COc1ccc(C(=O)OC2C(OC3C(O)COC(O[C@H]4C[C@H]5[C@@H]6CC=C7C[C@@H](O)CC[C@]7(C)[C@H]6CC[C@]5(C)[C@H]4[C@H](C)C(=O)CCC(C)C)C3OC(C)=O)OCC(O)C2O)cc1 (stereo partly specified) |  |  | 1.02 µM | 30 µM | < 0.003 µM | 0.532 µM | < 0.003 µM | 9.95 µM | < 0.003 µM | 2.18 µM | < 0.003 µM | 3.86 µM | < 0.003 µM | 0.0072 µM | < 0.003 µM | 0.0173 µM
16 | O=C(COc1ccc(-c2nc3cc(Cl)c(Cl)cc3[nH]2)cc1)N=Nc1c(O)[nH]c2ccccc12 |  |  | 1.55 µM | > 100 µM |  |  |  |  | 12.7 µM | 59 µM | 0.564 µM | 2.1 µM |  |  | 2.55 µM | > 100 µM
17 | Oc1c2c(c(O)c3ccccc13)C1(N=N2)c2ccccc2Oc2ccccc21 |  |  |  | 11.1 µM |  | 13.6 µM |  | 66.5 µM |  | 23.5 µM |  | 16.4 µM |  | 19.1 µM |  | 5.13 µM
18 | COc1cc(NC(C)CCCN)c2ncccc2c1Sc1ccc(Cl)cc1 (stereo unspecified) |  |  | 1.64 µM | 3 µM | 1.76 µM | 3.19 µM | 1.65 µM | 3.01 µM |  |  | 1.51 µM | 2.83 µM | 1.63 µM | 3.15 µM |  | 
